Data as given in patent US5688774A (priority 1995, dated 1997).
Where two headings read alike, the source gives them in different places.

Key:
A3 receptor = settings: coadministered with a xanthine antagonist that does not act at A3 receptors; cited from earlier work
A3 receptors [1] = target: T1, A3 receptors (Rattus norvegicus, UniProt P28647); settings: in words; Zhou et al.; cited from earlier work
T1 sequence (P28647 1-320): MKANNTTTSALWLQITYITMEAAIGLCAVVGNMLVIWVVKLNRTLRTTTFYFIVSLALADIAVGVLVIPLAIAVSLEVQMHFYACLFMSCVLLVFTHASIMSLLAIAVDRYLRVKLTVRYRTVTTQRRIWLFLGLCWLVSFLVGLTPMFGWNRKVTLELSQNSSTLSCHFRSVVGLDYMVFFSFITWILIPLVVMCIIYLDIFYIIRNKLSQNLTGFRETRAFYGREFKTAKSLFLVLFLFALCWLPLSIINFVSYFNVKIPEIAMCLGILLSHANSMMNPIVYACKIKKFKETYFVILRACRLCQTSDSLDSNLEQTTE

A3 receptors [2] = target: T1, A3 receptors; experiment: A3 receptor binding selectivity; settings: in words
[3] = target: T2, rat A3 adenosine receptors (Rattus norvegicus, UniProt P28647); experiment: Inhibition of adenylate cyclase in CHO cells stably transfected with rat A3 adenosine receptors; assay type: cell-based; parameters: key to Effect on IB-MECA dose-resp. curve: no effect; settings: for Ratio Conc./Ki (A3): test concentration divided by Ki (A3)
T2 construct: expressed in transfected cells; host or cells: CHO cells, stably transfected
T2 sequence (P28647 1-320): T1 sequence (P28647 1-320)

rat brain A2a receptor = target: T3, rat brain A2a receptor (Rattus norvegicus, UniProt P30543); experiment: Displacement of [^3 H]CGS 21680 binding at A2a receptors
T3 construct: A2 receptors from rat striatal membranes; from tissue; host or cells: rat striatal membranes
T3 sequence (P30543 whole entry): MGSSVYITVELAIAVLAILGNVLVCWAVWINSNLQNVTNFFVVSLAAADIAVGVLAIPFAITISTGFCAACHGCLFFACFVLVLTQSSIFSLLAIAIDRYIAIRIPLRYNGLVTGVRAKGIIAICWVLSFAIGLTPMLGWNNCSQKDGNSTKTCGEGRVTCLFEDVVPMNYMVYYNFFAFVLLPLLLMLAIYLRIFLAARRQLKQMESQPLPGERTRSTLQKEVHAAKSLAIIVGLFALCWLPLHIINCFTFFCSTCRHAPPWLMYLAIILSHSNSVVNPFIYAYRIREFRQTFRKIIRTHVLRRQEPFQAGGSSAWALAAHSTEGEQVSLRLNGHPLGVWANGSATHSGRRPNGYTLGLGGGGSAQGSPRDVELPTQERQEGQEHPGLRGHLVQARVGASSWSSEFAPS
Description: Rat cerebral cortical and striatal membranes were prepared (Jacobson et al., J. Med. Chem., 35, 4143-4149 (1992)) and treated with ADA for 30 min at 37° C. prior to storage at -70° C.
The stock solutions were diluted with DMSO to a concentration of ≤0.1 mM prior to addition to the aqueous medium. The final concentration of DMSO in the assay medium was generally 2%.
At least six different concentrations spanning three orders of magnitude, adjusted appropriately for the IC50 of each compound, were used. […]. Pharmacol., 22, 3099-3108 (1973)).

rat brain A1 receptor = target: T4, rat brain A1 receptor (Rattus norvegicus, UniProt P25099); experiment: Displacement of [^3 H]PIA binding at A1 receptors
T4 construct: Rat cerebral cortical and striatal membranes were prepared; from tissue; host or cells: rat brain membranes (cerebral cortical)
T4 sequence (P25099 1-326): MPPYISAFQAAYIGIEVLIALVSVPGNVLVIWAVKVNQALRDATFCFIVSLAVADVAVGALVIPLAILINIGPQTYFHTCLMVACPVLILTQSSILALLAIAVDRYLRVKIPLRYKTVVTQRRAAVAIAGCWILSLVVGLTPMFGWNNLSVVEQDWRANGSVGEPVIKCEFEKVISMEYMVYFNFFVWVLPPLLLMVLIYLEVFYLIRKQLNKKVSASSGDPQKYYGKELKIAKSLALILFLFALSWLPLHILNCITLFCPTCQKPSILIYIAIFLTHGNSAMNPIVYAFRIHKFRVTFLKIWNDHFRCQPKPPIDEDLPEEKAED

[4] = test system: NMDA-induced seizures in mice; settings: cited from earlier work
[5] = test system: ischemic model in gerbils; settings: cited from earlier work
[6] = [^3 H]CGS 21680, rat brain membranes, Ki ± S.E.M., n = 3-6
[7] = [^3 H]PIA, rat brain membranes, Ki ± S.E.M., n = 3-6
[8] = CHO, 1 μM forskolin, average ± S.E.M. for 2-3 determinations or a single value, read-out: % Inhib. (adenylate cyclase)

| SMILES | Ki (rat brain A2a receptor; [6]) [µM] | Ratio Conc./Ki (A3) [3] | Ki (rat brain A1 receptor; [7]) [µM] | inhibition at 100 µM [3, 8] [%] | also measured |
| --- | --- | --- | --- | --- | --- |
| Nc1ccc(CCNc2ncnc3c2ncn3[C@@H]2O[C@H](CO)[C@@H](O)[C@H]2O)cc1 [APNEA, N^6-2-(4-aminophenyl)ethyladenosine] | – | – | – | – | cardioprotective potential of A3 receptor activation (A3 receptor): has been demonstrated; activity at the A3 receptor (A3 receptors [1]): agonists for the A3 receptor |
| CCNC(=O)[C@H]1O[C@@H](n2cnc3c(NCc4ccccc4)ncnc32)[C@H](O)[C@@H]1O [N^6-benzyladenosine-5'-N-ethyluronamide, reference compound] | – | – | – | – | selectivity for rat A3 receptors vs. either A1 or A2a receptors in binding assays (A3 receptors [2]): only one order of magnitude selective; agonist efficacy in inhibition of adenylate cyclase ([3]; in words, via rat A3 receptors): full agonists |
| CNC(=O)[C@@H]1C[C@@H](OC(C)=O)[C@H](n2cnc3c(NCc4cccc(I)c4)nc(Cl)nc32)O1 [Compound 37, 9-(2-Acetyl-3-Deoxy-β-D-5-Methyl-Ribofuronamido)-2-Chloro -N^6-(3-Iodobenzyl)adenine] | 15.9 ± 3.7 | 320 | 0.778 ± 0.044 | – | inhibition at 20 µM ([3]; CHO, 20 μM, 1 μM forskolin, average ± S.E.M. for 2-3 determinations or a single value, read-out: % Inhib. (adenylate cyclase)): 12.7 ± 1% |
| CNC(=O)[C@H]1O[C@@H](n2cnc3c(NCc4cccc(I)c4)nc(Cl)nc32)[C@@H]2OC(=S)O[C@@H]21 [Compound 46, 2-Chloro-9-(2',3'-O-Thiocarbonyl-β-D-5-Methyl-Ribofuronamido)-N^6-(3-Iodobenzyl)adenine] | 0.871 ± 0.219 | 8200 | 0.179 ± 0.024 | 54.5 ± 8.1 | – |
| CNC(=O)[C@@H]1C[C@@H](O)[C@H](n2cnc3c(NCc4cccc(I)c4)nc(Cl)nc32)O1 [Compound 41b, 2-Chloro-9-(3-Deoxy-β-D-5-Methyl-Ribofuronamido)-N^6-(3-Iodobenzyl)adenine] | 4.66 ± 0.74 | 3000 | 1.03 ± 0.15 | 49.2 ± 3.7 | – |
| CNC(=O)[C@H]1O[C@@H](n2cnc3c(NCc4cccc(I)c4)ncnc32)[C@H](O)[C@@H]1O [IB-MECA, N^6-(3-iodobenzyl)adenosine-5'-N-methyluronamide] | – | – | – | – | cerebroprotective effects, NMDA-induced seizures [4]: cerebroprotective effects; cerebroprotective effects, ischemic model [5]: cerebroprotective effects |
| CSc1nc(NCc2cccc(I)c2)c2ncn(C)c2n1 [Compound 16, N^6-(3-Iodobenzyl)-9-Methyl-2-Methylthioadenine] | 1.64 ± 0.39 | 330 | 1.89 ± 0.59 | 19.5 | Effect on IB-MECA dose-resp. curve ([3]; 1 μM forskolin): c |
| OC[C@H]1O[C@@H](n2cnc3c(NCc4cccc(I)c4)nc(Cl)nc32)[C@H](O)[C@@H]1O [2-chloro-N^6-(3-iodobenzyl)-adenosine] | – | – | – | – | tolerance of 2-substitution at A3 receptors (A3 receptors [2]): well-tolerated |
| O[C@@H]1[C@H](O)CO[C@H]1n1cnc2c(NCc3cccc(I)c3)nc(Cl)nc21 [Compound 28, 2-Chloro-9-(b-D-erythrofuranoside)-N^6-(3-iodobenzyl)adenine] | – | 360 | – | 42.2 | Ki (rat brain A2a receptor): 2.89 ± 1 µM; Ki (rat brain A1 receptor): 0.811 ± 0.123 µM |
| CCNC(=O)[C@H]1O[C@@H](n2cnc3c(N)nc(NCCc4ccc(CCC(=O)NCCN)cc4)nc32)[C@H](O)[C@@H]1O [APEC] | – | – | – | – | tolerance of 2-substitution at A3 receptors (A3 receptors [2]): well-tolerated |
| CC(C)[Si]1(C(C)C)OC[C@H]2O[C@@H](n3cnc4c(NCc5cccc(I)c5)nc(Cl)nc43)[C@H](O)[C@@H]2O[Si](C(C)C)(C(C)C)O1 [Compound 45, 2-Chloro-9-(3,5-1,1,3,3-Tetraisopropyldisiloxyl-β-D-5-Ribofuranosyl)-N^6-(3-Iodobenzyl)adenine] | – | 7.6 | 66.3 ± 19.8 | 8.7 | % Inhibition (A2a) (rat brain A2a receptor; at 10^-4, [^3 H]CGS 21680, rat brain): 18 ± 2% |
| CNC(=O)[C@@H]1CC[C@H](n2cnc3c(NCc4ccccc4)nc(Cl)nc32)O1 [Compound 40, 2-Chloro-9-(2,3-Dideoxy-β-D-5-Methyl-Ribofuronamido)-N^6 -Benzyladenine] | 220 ± 65 | 1.3 | 11.5 ± 1.3 | – | Effect on IB-MECA dose-resp. curve ([3]; 1 μM forskolin): c; inhibition at 40 µM ([3]; CHO, 40 μM, 1 μM forskolin, average ± S.E.M. for 2-3 determinations or a single value, read-out: % Inhib. (adenylate cyclase)): 18.1 ± 8.7% |
